Holding throughout (type): cell-based
In one data set the test system is human erythrocytes. The experiment in a line: Hemolytic activity against human erythrocytes. To be noted: for HC50: Erythrocyte, read-out: ED50, Erythrocytes (hemolytic activity); for hemolytic activity (in words): concentration range up to 50 µM. As for the experimental part:
Human blood (B(III) Rh+) was used to obtain erythrocytes by centrifuging 450× g three times for 5 min with phosphate-buffered saline (PBS) (pH 7.4) at 4 °C on centrifuge LABOFUGE 400R (Heraeus, Hanau, Germany). Ice-cold PBS (pH 7.4) was used for resuspension of erythrocytes residue to a final optical density of 1.5 at 700 nm, which was kept on ice. Then, 20 µL of tested compound solution or control—djakonovioside A1 [5]—were added to 180 µL of erythrocyte suspension in V-bottom 96-well plates and exposed for 1 h at 37 °C. Next, centrifugation at 900× g for 10 min on laboratory centrifuge LMC-3000 (Biosan, Riga, Latvia), led to layers’ separation, and 100 µL of supernatant was carefully decanted and transferred into new flat-plate each. The values of erythrocyte lysis were measured on microplate photometer Multiskan FC (Thermo Fisher Scientific, Waltham, MA, USA) at λ = 570 nm as hemoglobin concentration in supernatant. The effective dose, causing lysis of 50% erythrocytes (ED50), was calculated with SigmaPlot 14.0 software. All the experiments were carried out in triple repetitions, p ≤ 0.05.

Data set [1] has as its system MCF-7 human breast cancer cell line. The experiment in a line: cells. To be noted: for IC50: read-out: Cytotoxicity, IC50, MCF-7; for Selectivity Index (SI), MCF-7: ratio of IC50 for healthy (MCF-10A) and cancer cells.
The subject of data set [2] is T-47D human breast cancer cell line. The experiment in a line: cells. The following applies: for IC50: read-out: Cytotoxicity, IC50, T-47D; for Selectivity Index (SI), T-47D: ratio of IC50 for healthy (MCF-10A) and cancer cells.
For data set [3], the system named is triple-negative MDA-MB-231 human breast cancer cell line. Kind of data set: cells. The following applies: for IC50: read-out: Cytotoxicity, IC50, MDA-MB-231; for Selectivity Index (SI), MDA-MB-231: ratio of IC50 for healthy (MCF-10A) and cancer cells.
The nature of the next data set: in vitro. The following applies: human.
Where [4] appears, read: human erythrocytes, 1 h at 37 °C, dose causing lysis of 50% erythrocytes.

The structures appear in SMILES notation. “Also recorded” adds a separate entry of the source. Where a name gives a salt, the structure may show the parent alone. Read-outs that look alike come from different tables or passages of the source.

The IC50 is the midpoint of a concentration-inhibition curve.

As for `CO[C@@H]1[C@@H](O)[C@H](O[C@@H]2[C@@H](O)[C@H](O[C@H]3[C@H](O)[C@@H](O)[C@H](O[C@H]4[C@H](O[C@H]5CC[C@]6(C)[C@@H]7CCC89C(=O)O[C@@](C)(C[C@@H](O)CC(C)C)[C@H]8[C@@H](OC(C)=O)C[C@@]9(C)C7=CC[C@H]6C5(C)C)OC[C@@H](OS(=O)(=O)O)[C@@H]4O)O[C@@H]3C)OC[C@H]2O)O[C@H](CO)[C@H]1O` (stereo partly drawn) [djakonovioside A1, reference compound], the “ED50, Erythrocytes (hemolytic activity)” value in the data set with human erythrocytes (setting [4]) is on record as 2.52 ± 0.23 µM. The IC50 in data set [1] (MTT, 24 h incubation) came out at 26.43 ± 0.14 µM; in data set [2] (MTT, 24 h incubation), 15.2 ± 0.96 µM; in data set [3] (MTT, 24 h incubation), 12.1 ± 0.54 µM. In data set [1], the “Selectivity Index (SI), MCF-7” value was found to be 0.66. In addition, the “Selectivity Index (SI), T-47D” value in data set [2] is reported as 1.15. Besides, in data set [3], the “Selectivity Index (SI), MDA-MB-231” value worked out at 1.45.

Consider `COC1C(O)C(CO)OC(OC2C(O)C(CO)OC(OC3C(CO)OC(OC4C(OC5CCC6(C)C7CCC89C(=O)OC(C)(CCC=C(C)C)C8C(OC(C)=O)CC9(C)C7=CCC6C5(C)C)OCC(OS(=O)(=O)O)C4O)C(OC4OCC(O)C(O)C4O)C3O)C2O)C1O` [djakonovioside D1, 3β-O-{3-O-methyl-β-D-glucopyranosyl-(1→3)-β-D-glucopyranosyl-(1→4)-[(1→2)-β-D-xylopyranosyl]-β-D-glucopyranosyl-(1→2)-4-O-sodium sulfate-β-D-xylopyranosyl}-16β-acetoxyholosta-7,24-dien], for which the HC50 with human erythrocytes (setting [4]) turned out to be 7.74 ± 0.37 µM. In addition, the “hemolytic activity (in words)” value with human erythrocytes (human erythrocytes, listed as D1) was “slightly lower but significant”; in the data set with human erythrocytes (human erythrocytes, listed as Djakonovioside D1), “moderate hemolytic activity; also recorded: slightly less hemolytic”. Also, the IC50 at 24 h in the data set “in vitro” is greater than 50 µM. Besides, the IC50 was greater than 50 µM in data set [1] (Homo sapiens, MCF7, 24 h); greater than 50 µM in data set [2] (Homo sapiens, T47D, 24 h); greater than 50 µM in data set [3] (Homo sapiens, MDA-MB-231, 24 h).

As for `COC1C(O)C(COS(=O)(=O)O)OC(OC2C(O)C(COS(=O)(=O)O)OC(OC3C(C)OC(OC4C(OC5CCC6(C)C7CCC8(C)C(C(C)(O)C(=O)CC=C(C)C)CCC8(C)C7=CCC6C5(C)C)OCC(OS(=O)(=O)O)C4O)C(OC4OCC(O)C(O)C4O)C3O)C2O)C1O` [djakonovioside F1, 3β-O-{6-O-sodium sulfate-3-O-methyl-β-D-glucopyranosyl-(1→3)-6-O-sodium sulfate-β-D-glucopyranosyl-(1→4)-[(1→2)-β-D-xylopyranosyl]-β-D-quinovopyranosyl-(1→2)-4-O-sodium sulfate-β-D-xylopyranosyl}-(20R)-hydroxy-22-oxo-lanosta-7,24-dien], the HC50 in the data set with human erythrocytes (Homo sapiens, 1 h) was found to be 0.51 ± 0.01 µM. Besides, in the data set with human erythrocytes (human erythrocytes), the “hemolytic activity (in words)” value is on record as “high hemolytic effect”. Besides, the IC50 at 24 h in “in vitro” was found to be 23.2 ± 0.78 µM. In addition, the IC50 worked out at 36.8 ± 0.73 µM in data set [1] (Homo sapiens, MCF7, 24 h); 22.5 ± 1.78 µM in data set [2] (Homo sapiens, T47D, 24 h); 20 ± 0.63 µM in data set [3] (Homo sapiens, MDA-MB-231, 24 h). Besides, the “Selectivity Index (SI), MCF-7” value in data set [1] is given as 0.63. The “Selectivity Index (SI), T-47D” value in data set [2] is 1.02. The “Selectivity Index (SI), MDA-MB-231” value in data set [3] stood at 1.16.

Consider `C=C(C)CCCC1(C)OC(=O)C23CCC4C(=CCC5C(C)(C)C(OC6OCC(OS(=O)(=O)O)C(O)C6OC6OCC(OC7OC(CO)C(O)C(OC8OC(CO)C(O)C(OC)C8O)C7O)C(O)C6OC6OCC(O)C(O)C6O)CCC45C)C2(C)CC(OC(C)=O)C13` (stereo not drawn) [djakonoviosides C1], for which the “hemolytic activity (in words)” value in the data set with human erythrocytes (human erythrocytes) was “slightly lower but significant”.

Turning to `COC1C(O)C(CO)OC(OC2C(O)C(CO)OC(OC3C(C)OC(OC4C(OC5CCC6(C)C7CCC89C(=O)OC(C)(CC=CC(C)(C)O)C8C(OC(C)=O)CC9(C)C7=CCC6C5(C)C)OCC(OS(=O)(=O)O)C4O)C(OC4OCC(O)C(O)C4O)C3O)C2O)C1O` (stereo not drawn) [frondoside A2-3], the HC50 in the data set on human erythrocytes (setting [4]) was greater than 50 µM. Also, the “hemolytic activity (in words)” value in the data set on human erythrocytes (human erythrocytes) is reported as “absence of the activity”; with human erythrocytes (human erythrocytes, listed as Frondoside A2-3) it was “did not show hemolytic or cytotoxic activity”. Besides, the IC50 at 24 h in the data set “in vitro” was greater than 50 µM. Besides, the IC50 in data set [1] (Homo sapiens, MCF7, 24 h) is greater than 50 µM; in data set [2] (Homo sapiens, T47D, 24 h), greater than 50 µM; in data set [3] (Homo sapiens, MDA-MB-231, 24 h), greater than 50 µM.

For `COC1C(O)C(COS(=O)(=O)O)OC(OC2C(O)C(COS(=O)(=O)O)OC(OC3C(C)OC(OC4C(OC5CCC6(C)C7=CCC8(C)C(C(C)=O)CCC8(C)C7CCC6C5(C)C)OCC(OS(=O)(=O)O)C4O)C(OC4OCC(O)C(O)C4O)C3O)C2O)C1O` (stereo not drawn) [isokoreoside A], in the data set with human erythrocytes (setting [4]), the HC50 was 17.4 ± 0.57 µM. For the same compound, the “hemolytic activity (in words)” value in the data set with human erythrocytes (human erythrocytes) is “moderate hemolytic activity; also recorded: low hemolytic activity”. The compound further came in with an IC50 at 24 h in the data set “in vitro” greater than 50 µM. In addition, the IC50 in data set [1] (Homo sapiens, MCF7, 24 h) was greater than 50 µM; in data set [2] (Homo sapiens, T47D, 24 h), greater than 50 µM; in data set [3] (Homo sapiens, MDA-MB-231, 24 h), greater than 50 µM.

For the compound `COC1C(O)C(COS(=O)(=O)O)OC(OC2C(O)C(COS(=O)(=O)O)OC(OC3C(C)OC(OC4C(OC5CCC6(C)C7CCC8(C)C(C(C)=O)CCC8(C)C7=CCC6C5(C)C)OCC(OS(=O)(=O)O)C4O)C(OC4OCC(O)C(O)C4O)C3O)C2O)C1O` (stereo not drawn) [koreoside A], the HC50 with human erythrocytes (setting [4]) is greater than 50 µM. Besides, in the data set on human erythrocytes (human erythrocytes), the “hemolytic activity (in words)” value is “did not show hemolytic or cytotoxic activity; also recorded: complete loss of the activity”. In addition, the IC50 at 24 h in “in vitro” was greater than 50 µM. Moreover, the IC50 was greater than 50 µM in data set [1] (Homo sapiens, MCF7, 24 h); greater than 50 µM in data set [2] (Homo sapiens, T47D, 24 h); greater than 50 µM in data set [3] (Homo sapiens, MDA-MB-231, 24 h).

For `C=C(C)CCCC1(C)OC(=O)C23CCC4C(=CCC5C(C)(C)C(OC6OCC(OS(=O)(=O)O)C(O)C6OC6OC(CO)C(OC7OC(CO)C(O)C(OC8OC(CO)C(O)C(OC)C8O)C7O)C(O)C6OC6OCC(O)C(O)C6O)CCC45C)C2(C)CC(OC(C)=O)C13` (stereo not drawn) [okhotoside A2-1], the HC50 in the data set with human erythrocytes (setting [4]) was found to be 1.53 ± 0.14 µM. Further, the IC50 at 24 h in “in vitro” was 12.2 ± 0.16 µM. For the same compound, the IC50 is 39.81 ± 0.18 µM in data set [1] (Homo sapiens, MCF7, 24 h); 11.9 ± 0.42 µM in data set [2] (Homo sapiens, T47D, 24 h); 12.6 ± 0.16 µM in data set [3] (Homo sapiens, MDA-MB-231, 24 h). In addition, the “Selectivity Index (SI), MCF-7” value in data set [1] turned out to be 0.31. Moreover, the “Selectivity Index (SI), T-47D” value in data set [2] was 1.03. Further, the “Selectivity Index (SI), MDA-MB-231” value in data set [3] is 0.97.

For the origin of these results see article PMC10744391, “Sulfated Triterpene Glycosides from the Far Eastern Sea Cucumber Cucumaria djakonovi: Djakonoviosides C1, D1, E1, and F1; Cytotoxicity against Human Breast Cancer Cell Lines; Quantitative Structure–Activity Relationships” (Marine Drugs, 2023).
